For 28 molecules, IC50 results are on record in US9637473B2, “Acrylamide derivatives as antimalarial agents” (priority 2013, dated 2017).

Counter-ions that a name gives are not always drawn.

One experiment deals with P. Falciparum NF54. The experiment can be described thus: Plasmodium falciparum in vitro assay ([3H]-hypoxanthine incorporation). The class given is cell-based. The conditions noted are these: P. Falciparum NF54, erythrocytic stages in human red blood cells, 50% human serum. As for the experimental part: In Vitro Antimalarial Activity: Plasmodium falciparum In Vitro Assay: In vitro activity against erythrocytic stages of P. Falciparum in human red blood cells is determined using a [^3H]-hypoxanthine incorporation assay. One strain sensitive to all drugs (P. […] After 48 hours, [^3H]-hypoxanthine (0.5 μCi) is added to each well of a plate. The plates are incubated for a further 24 hours under the same conditions then harvested with a Betaplate cell harvester (Wallac) and washed with distilled water. The dried filters are inserted into a plastic foil with 10 mL of scintillation fluid and counted in a Betaplate liquid scintillation counter. IC50 values are calculated from sigmoidal inhibition curves using Microsoft Excel.
Usually IC50 stands for the point on the concentration scale where inhibition reaches its midpoint. The molecule `CN(c1ccncc1)c1ccc(CN(C(=O)/C=C/c2ccc(C(F)(F)F)cc2)C2C[C@@H]3CN(C4CCCC4)C[C@@H]3C2)cc1` (single isomer, unassigned) [Example 66] displayed an IC50 of 0.014 µM.

Still in this experiment, the particulars now being: Plasmodium falciparum, Erythrocyte, P. Falciparum NF54, erythrocytic stages in human red blood cells, 50% human serum.
For `CN(c1ccncc1)c1ccc(CN(C(=O)/C=C/c2ccc(C(F)(F)F)cc2)C2CCN(Cc3ccnn3C)CC2)cc1` [Example 17, (E)-N-[1-(2-Methyl-2H-pyrazol-3-ylmethyl)-piperidin-4-yl]-N-[4-(methyl-pyridin-4-yl-amino)-benzyl]-3-(4-trifluoromethyl-phenyl)-acrylamide], it took 0.18 µM to reach half-maximal inhibition (IC50). That is a sub-micromolar value.

`CN(c1ccncc1)c1ccc(CN(C(=O)/C=C/c2ccc(F)cc2)C2CCN(Cc3ccccc3)CC2)cc1` [Example 155, (E)-N-(1-Benzyl-piperidin-4-yl)-3-(4-fluoro-phenyl)-N-[4-(methyl-pyridin-4-yl-amino)-benzyl]-acrylamide] yielded a concentration for half-maximal inhibition (IC50) of 0.101 µM. Still for that read-out and setting: the value for `Cc1cc(Nc2ccc(CN(CC3CCN(C4CCN(C)CC4)CC3)C(=O)/C=C/c3ccc(C(F)(F)F)cc3)cc2)ccn1` [Example 172, (E)-N-(1′-Methyl-[1,4′]bipiperidinyl-4-ylmethyl)-N-[4-(2-methyl-pyridin-4-ylamino)-benzyl]-3-(4-trifluoromethyl-phenyl)-acrylamide] was 0.178 µM; that for `CN(c1ccc(CN(C(=O)/C=C/c2ccc(C(F)(F)F)cc2)C2CCN(C3CCCC3)CC2)cc1)c1cccnc1` [Example 96, (E)-N-(1-Cyclopentyl-piperidin-4-yl)-N-[4-(methyl-pyridin-3-yl-amino)-benzyl]-3-(4-trifluoromethyl-phenyl)-acrylamide] was 0.351 µM.

`Cc1cc(Nc2ccc(CN(C(=O)/C=C/c3ccc(C(F)(F)F)cc3)C3CCN(Cc4nccs4)CC3)cc2)ccn1` [Example 40, (E)-N-[4-(2-Methyl-pyridin-4-ylamino)-benzyl]-N-(1-thiazol-2-ylmethyl-piperidin-4-yl)-3-(4-trifluoromethyl-phenyl)-acrylamide] gave an IC50 of 0.341 µM.

`CN1CCC(N2CCC(CN(Cc3ccc(N(C)c4ccncc4)cc3)C(=O)/C=C/c3ccc(C(F)(F)F)cc3)CC2)CC1` [Example 187, (E)-N-(1′-Methyl-[1,4′]bipiperidinyl-4-ylmethyl)-N-[4-(methyl-pyridin-4-yl-amino)-benzyl]-3-(4-trifluoromethyl-phenyl)-acrylamide]: the IC50 was 0.016 µM. For `Cc1cc(Nc2ccc(CN(C(=O)/C=C/c3ccc(C(F)(F)F)cc3)C3CCN(Cc4cnc(C)n4C)CC3)cc2)ccn1` [Example 52, (E)-N-[1-(2,3-Dimethyl-3H-imidazol-4-ylmethyl)-piperidin-4-yl]-N-[4-(2-methyl-pyridin-4-ylamino)-benzyl]-3-(4-trifluoromethyl-phenyl)-acrylamide], the IC50 came out at 0.143 µM. For the molecule `CN1CCC(N2CCC(N(Cc3ccc(N(C)c4ccncc4)cc3)C(=O)/C=C/c3ccc(C(F)(F)F)nc3)CC2)CC1` [Example 183, (E)-N-(1′-Methyl-[1,4′]bipiperidinyl-4-yl)-N-[4-(methyl-pyridin-4-yl-amino)-benzyl]-3-(6-trifluoromethyl-pyridin-3-yl)-acrylamide], 0.049 µM corresponded to half-maximal inhibition (IC50). Turning to `CN(c1ccncc1)c1ccc(CN(C(=O)/C=C/c2ccc(C(F)(F)F)cc2)C2CCNCC2)cc1` [Example 1, (E)-N-[4-(Methyl-pyridin-4-yl-amino)-benzyl]-N-piperidin-4-yl-3-(4-trifluoromethyl-phenyl)-acrylamide], the 50% inhibitory concentration (IC50) is 0.121 µM. In turn, `CN1CCC(N2CCC(N(Cc3ccc(N(C)c4ccncc4)cc3)C(=O)/C=C/c3ccc(C#N)cc3)CC2)CC1` [Example 179, (E)-3-(4-Cyano-phenyl)-N-(1′-methyl-[1,4′]bipiperidinyl-4-yl)-N-[4-(methyl-pyridin-4-yl-amino)-benzyl]-acrylamide] had a concentration for half-maximal inhibition (IC50) of 0.054 µM. This IC50 lies about 2.2-fold lower than the previous one. `Cc1cc(Nc2ccc(CN(C(=O)/C=C/c3ccc(C(F)(F)F)cc3)C3CCN(Cc4ncc5ccccn45)CC3)cc2)ccn1` [Example 46, (E)-N-(1-Imidazo[1,5-a]pyridin-3-ylmethyl-piperidin-4-yl)-N-[4-(2-methyl-pyridin-4-ylamino)-benzyl]-3-(4-trifluoromethyl-phenyl)-acrylamide]: the IC50 was found to be 0.165 µM. Same read-out and setting: the result for `Cc1cc(Nc2ccc(CN(C(=O)/C=C/c3ccc(C(F)(F)F)cc3)C3CCN(C4CCCC4)CC3)cc2)cc(C)n1` [Example 87, (E)-N-(1-Cyclopentyl-piperidin-4-yl)-N-[4-(2,6-dimethyl-pyridin-4-ylamino)-benzyl]-3-(4-trifluoromethyl-phenyl)-acrylamide] reads 0.028 µM. `CN1CCC(N2CCC3(CCC(N(Cc4ccc(N(C)c5ccncc5)cc4)C(=O)/C=C/c4ccc(C(F)(F)F)cc4)CC3)CC2)CC1` [Example 65, (E)-N-(4-(methyl(pyridin-4-yl)amino)benzyl)-N-(3-(1-methylpiperidin-4-yl)-3-azaspiro[5.5]undecan-9-yl)-3-(4-(trifluoromethyl)phenyl)acrylamide] yielded an IC50 of 0.021 µM. The same measure, in the same setting: the result for `CC(C)CCN1CC[C@@H](N(Cc2ccc(N(C)c3ccncc3)cc2)C(=O)/C=C/c2ccc(C(F)(F)F)cc2)[C@H](F)C1` (racemic) [Example 81, (±)-(E)-N-(trans-3-fluoro-1-isopentylpiperidin-4-yl)-N-(4-(methyl(pyridin-4-yl)amino)benzyl)-3-(4-(trifluoromethyl)phenyl)acrylamide] reads 0.122 µM; that for `Cc1cc(Nc2ccc(CN(C(=O)/C=C/c3ccc(Cl)cc3)C3CCN(C4CCN(C)CC4)CC3)cc2)ccn1` [Example 117, (E)-3-(4-Chloro-phenyl)-N-(1′-methyl-[1,4′]bipiperidinyl-4-yl)-N-[4-(2-methyl-pyridin-4-ylamino)-benzyl]-acrylamide], 0.305 µM; that for `CN(c1ccncc1)c1ccc(CN(C(=O)/C=C/c2ccc(Cl)cc2)C2CCN(Cc3ccccc3)CC2)cc1` [Example 152, (E)-N-(1-Benzyl-piperidin-4-yl)-3-(4-chloro-phenyl)-N-[4-(methyl-pyridin-4-yl-amino)-benzyl]-acrylamide], 0.076 µM. As for `Cc1cccc(/C=C/C(=O)N(Cc2ccc(N(C)c3ccncc3)cc2)C2CCN(Cc3ccccc3)CC2)c1` [Example 159, (E)-N-(1-Benzyl-piperidin-4-yl)-N-[4-(methyl-pyridin-4-yl-amino)-benzyl]-3-m-tolyl-acrylamide], it took 0.195 µM to reach half-maximal inhibition (IC50). On to `CN1CCC(N2CCC(N(Cc3ccc(N(C)c4ccncc4)cc3)C(=O)/C=C/c3ccccc3)CC2)CC1` [Example 182, (E)-N-(1′-Methyl-[1,4′]bipiperidinyl-4-yl)-N-[4-(methyl-pyridin-4-yl-amino)-benzyl]-3-phenyl-acrylamide], for which the IC50 was found to be 0.069 µM. For the molecule `Cc1cc(N(C)c2cccc(CN(C(=O)/C=C/c3ccc(C(F)(F)F)cc3)C3CCN(C(C)C)CC3)n2)ccn1` [Example 128, (E)-N-(1-Isopropyl-piperidin-4-yl)-N-{6-[methyl-(2-methyl-pyridin-4-yl)-amino]-pyridin-2-ylmethyl}-3-(4-trifluoromethyl-phenyl)-acrylamide formate], the midpoint of inhibition, the IC50, lay at 0.302 µM.

The molecule `Cc1cc(Nc2ccc(CN(C(=O)/C=C/c3ccc(Cl)cc3)C(C)CN(C)C)cc2)ccn1` (stereo not shown) [Example 209, (E)-3-(4-Chloro-phenyl)-N-(2-dimethylamino-1-methyl-ethyl)-N-[4-(2-methyl-pyridin-4-ylamino)-benzyl]-acrylamide] had an IC50 of 0.172 µM. Compared with the last molecule, the IC50 is about 1.8-fold lower. In the case of `Cc1nc(C)c(/C=C/C(=O)N(Cc2ccc(N(C)c3ccncc3)cc2)C2CCN(Cc3ccccc3)CC2)s1` [Example 163, (E)-N-(1-Benzyl-piperidin-4-yl)-3-(2,4-dimethyl-thiazol-5-yl)-N-[4-(methyl-pyridin-4-yl-amino)-benzyl]-acrylamide], the IC50 came to 0.289 µM. This IC50 is about 1.7-fold higher than that of the molecule before. Same read-out and setting: the result for `CCN(CC)Cc1cc(CN2CCC(N(Cc3ccc(Nc4ccnc(C)c4)cc3)C(=O)/C=C/c3ccc(C(F)(F)F)cc3)CC2)ccc1O` [Example 54, (E)-N-[1-(3-Diethylaminomethyl-4-hydroxy-benzyl)-piperidin-4-yl]-N-[4-(2-methyl-pyridin-4-ylamino)-benzyl]-3-(4-trifluoromethyl-phenyl)-acrylamide] reads below 0.008 µM. `CCc1ccc(/C=C/C(=O)N(Cc2ccc(N(C)c3ccncc3)cc2)C2CCN(Cc3ccccc3)CC2)cc1` [Example 147, (E)-N-(1-Benzyl-piperidin-4-yl)-3-(4-ethyl-phenyl)-N-[4-(methyl-pyridin-4-yl-amino)-benzyl]-acrylamide] gave an IC50 of 0.157 µM. For the molecule `CN(c1ccncc1)c1ccc(CN(C(=O)/C=C/c2ccc(C(F)(F)F)cc2)C2CCCN(C3CCCC3)CC2)cc1` (racemic) [Example 60, (±)-(E)-N-(1-cyclopentylazepan-4-yl)-N-(4-(methyl(pyridin-4-yl)amino)benzyl)-3-(4-(trifluoromethyl)phenyl)acrylamide], half-maximal inhibition (IC50) was put at 0.079 µM. In turn, `CN(C)CCN1CCC(N(Cc2ccc(N(C)c3ccncc3)cc2)C(=O)/C=C/c2ccc(C(F)(F)F)cc2)CC1` [Example 195, (E)-N-[1-(2-Dimethylamino-ethyl)-piperidin-4-yl]-N-[4-(methyl-pyridin-4-yl-amino)-benzyl]-3-(4-trifluoromethyl-phenyl)-acrylamide formate] showed an IC50 of 0.057 µM.

`COCC(C)N1CCC(N(Cc2ccc(Nc3ccnc(C)c3)cc2)C(=O)/C=C/c2ccc(C(F)(F)F)cc2)CC1` (racemic) [Example 84, (±)-(E)-N-[1-(2-Methoxy-1-methyl-ethyl)-piperidin-4-yl]-N-[4-(2-methyl-pyridin-4-ylamino)-benzyl]-3-(4-trifluoromethyl-phenyl)-acrylamide] came in with an IC50 of 0.042 µM. As to `O=C(/C=C/c1ccc(C(F)(F)F)cc1)N(Cc1ccc(Oc2ccncc2)cc1)C1CCN(C2CCCC2)CC1` [Example 207, (E)-N-(1-Cyclopentyl-piperidin-4-yl)-N-[4-(pyridin-4-yloxy)-benzyl]-3-(4-trifluoromethyl-phenyl)-acrylamide], the midpoint of inhibition, the IC50, lay at 0.412 µM.
